This note sets out measurements from PMC3344887 (PLoS ONE, 2012).

One data set relates to healthy subjects. Nature of the data set: Soft-link PK-PD model, MDMA plasma concentration vs VAS any drug effect. The class given is in vivo, humans. The note with it: for EC50: Homo sapiens. An excerpt:
PK-PD modeling: First, a soft-link PK-PD model was used to evaluate the in vivo relationship between the concentration of MDMA and subjective effect of the drug. The change in the VAS for any drug effect was used as the pharmacodynamic measure in each individual. Because we observed clockwise hysteresis in the effect-concentration relationship over time, we used PK-PD data pairs within the ascending part of the individual curves up to Emax or Cmax. Our estimate of Emax, which should represent the maximal response portion of the dose-response curve, may already have been affected by tolerance. […] Based on the good brain penetration of MDMA and absence of a time lag, we assumed rapid equilibration between plasma and the central compartment (brain). […] The sigmoid Emax model provided a better fit than a simple Emax or linear model. Data pooling was used because only few data pairs were available per subject. Non-linear regression was used to obtain parameter estimates. Second, we also used a hard-link PK-PD model to predict in vivo PD effects based on the in vitro concentration-response data linked to the observed individual in vivo PK. […] Similar to the soft-link PK-PD model, a single compartment PK model (plasma = brain concentration) was used, and only ascending PK or PD values were included. The in vivo data were linked to the PK of each individual, and a mean predicted effect-time curve was established.

A further data set is described as follows: clinical. The note with it: human, in vivo. How it is done: Identical placebo (lactose) capsules were prepared. […] Drugs were administered without food.
Plasma concentrations of copeptin were also determined in this study as reported elsewhere. […] No hydrolysis was performed. Thus, the values for HMMA represent the drug concentrations of the non-conjugated metabolite. All blood samples were collected on ice and centrifuged within 10 min at 4°C. The plasma was then stored at –20°C until the analysis.
Cmax and tmax were obtained directly from the observed concentration-time curves. […] Terminal elimination half-life (t 1/2) was calculated using λz and the equation t1/2 = ln2/λz. The area under the plasma concentration-time curve up to 6 h (AUC0-6h) was calculated using the linear trapezoidal rule. The AUC0–∞ was determined by extrapolation of AUC0–6h using λz. The PK parameters were determined using the PK functions for Excel (Microsoft, Redmont, CA, USA). Plasma concentrations were only determined up to 6 h after MDMA administration because the aim of the study was to assess potential changes in MDMA plasma levels while relevant pharmacodynamic effects or MDMA were present.

Structures are written as SMILES. Where two headings read alike, the source gives them in different places.

Consider `CNC(C)Cc1ccc2c(c1)OCO2` (centres unmarked) [MDMA, 3,4-methylenedioxymethamphetamine], for which the EC50 amounted to 0.38 µM in the data set with healthy subjects (second statement, in brackets, read-out: EC50 of the PK-PD curve in humans); 0.074 mg/L with healthy subjects (second statement, read-out: EC50 of the PK-PD curve in humans); 0.48 µM with healthy subjects (sigmoid Emax model, in brackets, read-out: EC50 of in vivo PK-PD relationship (MDMA plasma concentration)); 0.0925 ± 0.0076 mg/L in the data set on healthy subjects (sigmoid Emax model, pooled data, read-out: EC50 of in vivo PK-PD relationship (MDMA plasma concentration)). For the same compound, the “Emax of in vivo PK-PD relationship (any drug effect)” value in the data set with healthy subjects (sigmoid Emax model, pooled data) was 93.8±7.3%. In addition, the Cmax worked out at 0.254 ± 0.0136 µg/mL in the data set “clinical” and 0.221 ± 0.0116 µg/mL in “clinical” (125 mg). The AUC(0-t) in “clinical” (AUC0-6) worked out at 1.11 ± 0.0572 µg·h/mL; in “clinical” (AUC0-6, Placebo-MDMA session, mean±SEM, n=16), 0.953 ± 0.0459 µg·h/mL. Further, in the data set “clinical” (AUC(0-∞)), the AUC(0-inf) is 2.91 ± 0.276 µg·h/mL. In addition, the half-life in “clinical” (T1/2) was 7.14 ± 0.4 h; in “clinical” (T1/2, Placebo-MDMA session, mean±SEM, n=16), 8.17 ± 0.74 h. Besides, the time to peak (Tmax) worked out at 2.66 ± 0.29 h in the data set “clinical” and 2.34 ± 0.19 h in the data set “clinical” (Placebo-MDMA session, mean±SEM, n=16).

Usually Cmax stands for the peak of the concentration-time curve. Usually AUC(0-t) stands for the area under the concentration-time curve up to a stated or last time point. A low value points to low exposure. The AUC(0-inf) is the area under the concentration-time curve extrapolated to infinity. Higher therefore signals more exposure. As a reminder, the half-life is the time needed for the level to fall by half in the phase considered. In general, Tmax refers to the time from dosing to the highest level.
